Experimental data taken from patent US7495126B2, “Process of preparation of substituted tetrafluorobenzylaniline compound and its pharmaceutically approved salts” (priority 2005, dated 2009).

Columns and labels:
[1] = tested on: SD (Sprague Dawley) male rats; assay: Acute toxicity test in rats, single intravenous dose; type: in vivo; details: for Number of dead animals/Number of drug-treated animals: 14 days after administration; for toxicity compared with free base: rats, i.v., Tables 7-9
[2] = as above; type: in vivo; details: male, Sprague-Dawley, rat, in vivo, iv; rats, single i.v. dose, 14 days; read-out: Estimated LD50
physchem = type: physicochemical; details: 25 °C, water, thermodynamic from solid
[3] = Stability test of oral preparation (powder in vial, HPLC); details: for Residual amount: powder (solid); for stability in powder form: high temperatures
Description: It was then stored at different temperatures (25° C., 40° C., 60° C.) for 6 months and the amount of active ingredients in powder were measured by HPLC.

[4] = Stability test of injectable preparation (salt in WFI, HPLC); details: for Residual amount: in WFI 2 mg/ml

With O=C(O)c1cc(NCc2c(F)c(F)c(C(F)(F)F)c(F)c2F)ccc1O [free base form, 2-hydroxy-5-(2,3,5,6-tetrafluoro-4-trifluoromethyl-benzylamino)benzoic acid] the “Number of dead animals/Number of drug-treated animals” value ([1]; 52 mg/kg single i.v. dose) was 0/7, the “Number of dead animals/Number of drug-treated animals” value ([1]; 68 mg/kg single i.v. dose) was 1/7 and the “Number of dead animals/Number of drug-treated animals” value ([1]; 89 mg/kg single i.v. dose) was 3/7. The “Number of dead animals/Number of drug-treated animals” value ([1]; 115 mg/kg single i.v. dose) was 3/7, the “Number of dead animals/Number of drug-treated animals” value ([1]; 150 mg/kg single i.v. dose) was 6/7 and the “Number of dead animals/Number of drug-treated animals” value ([1]; 171 mg/kg single i.v. dose) was 6/7. The “Number of dead animals/Number of drug-treated animals” value ([1]; 184 mg/kg single i.v. dose) was 7/7, the “Number of dead animals/Number of drug-treated animals” value ([1]; 195 mg/kg single i.v. dose) was 7/7 and the LD50 at 14 day [2] was 115 to 150 mg/kg.
In the case of O=C([O-])c1cc(NCc2c(F)c(F)c(C(F)(F)F)c(F)c2F)ccc1O.[Li+] [lithium salt, lithium 2-hydroxy-5-(2,3,5,6-tetrafluoro-4-trifluoromethyl-benzylamino)benzoate], the solubility at 48 h (physchem) is reported as 500 mg/mL, the Residual amount ([3]; 25° C., day 0) is reported as 98.56 ± 0.89% and the Residual amount ([3]; 25° C., day 7) is reported as 98.32 ± 0.32%. For the same compound, the Residual amount ([3]; 25° C., day 14) was 97.69 ± 2.58%, the Residual amount ([3]; 25° C., day 21) was 96.87 ± 1.64% and the Residual amount ([3]; 25° C., day 30) was 95.01 ± 1.10%. The Residual amount ([3]; 25° C., day 60) was 94.78 ± 8.09%, the Residual amount ([3]; 25° C., day 120) was 92.69 ± 1.03% and the Residual amount ([3]; 25° C., day 180) was 90.85 ± 1.61%. The Residual amount ([3]; 40° C., day 0) was 98.56 ± 0.89%, the Residual amount ([3]; 40° C., day 7) was 98.16 ± 0.09% and the Residual amount ([3]; 40° C., day 14) was 96.18 ± 3.28%. For the same compound, the Residual amount ([3]; 40° C., day 21) was 96.02 ± 2.49%, the Residual amount ([3]; 40° C., day 30) was 95.96 ± 0.89% and the Residual amount ([3]; 40° C., day 60) was 95.70 ± 6.88%. It also gave a Residual amount ([3]; 40° C., day 120) of 95.58 ± 1.38%, a Residual amount ([3]; 40° C., day 180) of 95.40 ± 2.37% and a Residual amount ([3]; 60° C., day 0) of 98.56 ± 0.89%. It also gave a Residual amount ([3]; 60° C., day 7) of 97.49 ± 0.80%, a Residual amount ([3]; 60° C., day 14) of 96.45 ± 2.80% and a Residual amount ([3]; 60° C., day 21) of 95.87 ± 2.09%. For the same compound, the Residual amount ([3]; 60° C., day 30) was 95.69 ± 2.97%, the Residual amount ([3]; 60° C., day 60) was 95.51 ± 1.99% and the Residual amount ([3]; 60° C., day 120) was 94.84 ± 0.56%. For the same compound, the Residual amount ([3]; 60° C., day 180) was 92.48 ± 3.14%.
With O=C([O-])c1cc(NCc2c(F)c(F)c(C(F)(F)F)c(F)c2F)ccc1O.[K+] [potassium salt, potassium 2-hydroxy-5-(2,3,5,6-tetrafluoro-4-trifluoromethyl-benzylamino)benzoate] the Residual amount ([4]; 25° C., day 7) was 103.92 ± 1.20%, the “stability profile in injectable preparation” value ([4]; in WFI, 25-60° C., 6 months) was “better than that of sodium- and lithium-salt compound” and the “Number of dead animals/Number of drug-treated animals” value ([1]; 50 mg/kg single i.v. dose) was 0/6. For the same compound, the “Number of dead animals/Number of drug-treated animals” value ([1]; 100 mg/kg single i.v. dose) was 0/6, the “Number of dead animals/Number of drug-treated animals” value ([1]; 150 mg/kg single i.v. dose) was 0/6 and the “Number of dead animals/Number of drug-treated animals” value ([1]; 200 mg/kg single i.v. dose) was 0/6. The “Number of dead animals/Number of drug-treated animals” value ([1]; 250 mg/kg single i.v. dose) was 3/3, the “Number of dead animals/Number of drug-treated animals” value ([1]; 300 mg/kg single i.v. dose) was 1/1 and the “Number of dead animals/Number of drug-treated animals” value ([1]; 500 mg/kg single i.v. dose) was 2/2. For the same compound, the “toxicity compared with free base” value [1] was “less toxicity than free base”, the LD50 at 14 day [2] was 200 to 250 mg/kg and the solubility at 48 h (physchem) was 590 mg/mL. The “stability in powder form” value [3] was “relatively stable in high temperatures”, the Residual amount ([3]; 25° C., day 0) was 100.43 ± 0.30% and the Residual amount ([3]; 25° C., day 30) was 100.31 ± 0.25%. For the same compound, the Residual amount ([3]; 25° C., day 60) was 100.20 ± 0.55%, the Residual amount ([3]; 25° C., day 90) was 100.17 ± 0.46% and the Residual amount ([3]; 25° C., day 120) was 100.07 ± 0.43%. It also gave a Residual amount ([3]; 25° C., day 180) of 100.03 ± 0.80%, a Residual amount ([3]; 40° C., day 0) of 100.43 ± 0.30% and a Residual amount ([3]; 40° C., day 30) of 100.28 ± 1.10%. The Residual amount ([3]; 40° C., day 60) was 100.14 ± 0.80%, the Residual amount ([3]; 40° C., day 90) was 100.10 ± 0.71% and the Residual amount ([3]; 40° C., day 120) was 99.81 ± 0.78%. The Residual amount ([3]; 40° C., day 180) was 99.78 ± 0.31%, the Residual amount ([3]; 60° C., day 0) was 100.43 ± 0.30% and the Residual amount ([3]; 60° C., day 30) was 99.60 ± 0.50%. The Residual amount ([3]; 60° C., day 60) was 99.56 ± 0.85%, the Residual amount ([3]; 60° C., day 90) was 99.27 ± 0.80% and the Residual amount ([3]; 60° C., day 120) was 99.03 ± 0.90%. For the same compound, the Residual amount ([3]; 60° C., day 180) was 98.87 ± 0.92%.
O=C([O-])c1cc(NCc2c(F)c(F)c(C(F)(F)F)c(F)c2F)ccc1O.[Na+] [sodium salt, sodium 2-hydroxy-5-(2,3,5,6-tetrafluoro-4-trifluoromethyl-benzylamino)benzoate] gave a Residual amount ([4]; 25° C., day 0) of 104.15 ± 0.54%, a Residual amount ([4]; 25° C., day 3) of 101.89 ± 1.16% and a Residual amount ([4]; 25° C., day 7) of 100.59 ± 0.19%. The Residual amount ([4]; 25° C., day 14) was 101.63 ± 0.19%, the Residual amount ([4]; 25° C., day 21) was 99.25 ± 1.41% and the Residual amount ([4]; 25° C., day 30) was 98.50 ± 1.64%. The Residual amount ([4]; 25° C., day 60) was 98.52 ± 0.02%, the Residual amount ([4]; 25° C., day 90) was 94.04 ± 4.28% and the Residual amount ([4]; 25° C., day 120) was 92.79 ± 1.01%. The Residual amount ([4]; 25° C., day 150) was 90.18 ± 3.14%, the Residual amount ([4]; 25° C., day 180) was 85.56 ± 4.58% and the Residual amount ([4]; 40° C., day 0) was 104.15 ± 0.54%. It also gave a Residual amount ([4]; 40° C., day 3) of 102.77 ± 0.08%, a Residual amount ([4]; 40° C., day 7) of 98.54 ± 0.71% and a Residual amount ([4]; 40° C., day 14) of 99.56 ± 0.72%. It also gave a Residual amount ([4]; 40° C., day 21) of 95.98 ± 1.50%, a Residual amount ([4]; 40° C., day 30) of 95.17 ± 0.07% and a Residual amount ([4]; 40° C., day 60) of 91.51 ± 1.17%. It also gave a Residual amount ([4]; 40° C., day 90) of 86.36 ± 0.90%, a Residual amount ([4]; 40° C., day 120) of 79.02 ± 1.05% and a Residual amount ([4]; 40° C., day 150) of 77.42 ± 0.71%. For the same compound, the Residual amount ([4]; 40° C., day 180) was 72.32 ± 0.38%, the Residual amount ([4]; 60° C., day 0) was 104.15 ± 0.54% and the Residual amount ([4]; 60° C., day 3) was 99.39 ± 0.43%. For the same compound, the Residual amount ([4]; 60° C., day 7) was 92.01 ± 1.27%, the Residual amount ([4]; 60° C., day 14) was 92.96 ± 1.28% and the Residual amount ([4]; 60° C., day 21) was 84.54 ± 1.34%. It also gave a Residual amount ([4]; 60° C., day 30) of 82.88 ± 4.35%, a Residual amount ([4]; 60° C., day 60) of 70.25 ± 4.27% and a Residual amount ([4]; 60° C., day 90) of 56.00 ± 11.70%. The Residual amount ([4]; 60° C., day 120) was 53.43 ± 6.30%, the Residual amount ([4]; 60° C., day 150) was 40.37 ± 14.41% and the Residual amount ([4]; 60° C., day 180) was 37.10 ± 12.35%. The “Number of dead animals/Number of drug-treated animals” value ([1]; 50 mg/kg single i.v. dose) was 0/5, the “Number of dead animals/Number of drug-treated animals” value ([1]; 100 mg/kg single i.v. dose) was 0/5 and the “Number of dead animals/Number of drug-treated animals” value ([1]; 150 mg/kg single i.v. dose) was 0/7. For the same compound, the “Number of dead animals/Number of drug-treated animals” value ([1]; 175 mg/kg single i.v. dose) was 1/7, the “Number of dead animals/Number of drug-treated animals” value ([1]; 200 mg/kg single i.v. dose) was 2/7 and the “Number of dead animals/Number of drug-treated animals” value ([1]; 225 mg/kg single i.v. dose) was 2/7. For the same compound, the “Number of dead animals/Number of drug-treated animals” value ([1]; 250 mg/kg single i.v. dose) was 5/5, the “toxicity compared with free base” value [1] was “less toxicity than free base” and the LD50 at 14 day [2] was 225 to 250 mg/kg. The solubility at 48 h (physchem) was 25 to 80 mg/mL, the “stability in powder form” value [3] was “relatively stable in high temperatures” and the Residual amount ([3]; 25° C., day 0) was 101.33 ± 1.02%. For the same compound, the Residual amount ([3]; 25° C., day 7) was 100.75 ± 6.24%, the Residual amount ([3]; 25° C., day 14) was 100.45 ± 1.24% and the Residual amount ([3]; 25° C., day 21) was 99.76 ± 0.70%. For the same compound, the Residual amount ([3]; 25° C., day 30) was 99.61 ± 3.21%, the Residual amount ([3]; 25° C., day 60) was 99.60 ± 0.16% and the Residual amount ([3]; 25° C., day 120) was 99.51 ± 1.70%. For the same compound, the Residual amount ([3]; 25° C., day 180) was 99.19 ± 2.28%, the Residual amount ([3]; 40° C., day 0) was 101.33 ± 1.02% and the Residual amount ([3]; 40° C., day 7) was 100.81 ± 3.35%. The Residual amount ([3]; 40° C., day 14) was 100.69 ± 0.29%, the Residual amount ([3]; 40° C., day 21) was 100.57 ± 0.48% and the Residual amount ([3]; 40° C., day 30) was 100.46 ± 0.27%. The Residual amount ([3]; 40° C., day 60) was 100.07 ± 0.16%, the Residual amount ([3]; 40° C., day 120) was 99.94 ± 1.15% and the Residual amount ([3]; 40° C., day 180) was 99.89 ± 1.11%. For the same compound, the Residual amount ([3]; 60° C., day 0) was 101.33 ± 1.02%, the Residual amount ([3]; 60° C., day 7) was 101.27 ± 4.45% and the Residual amount ([3]; 60° C., day 14) was 101.14 ± 0.50%. The Residual amount ([3]; 60° C., day 21) was 100.15 ± 1.14%, the Residual amount ([3]; 60° C., day 30) was 100.10 ± 0.75% and the Residual amount ([3]; 60° C., day 60) was 99.91 ± 1.18%. The Residual amount ([3]; 60° C., day 120) was 99.81 ± 2.28% and the Residual amount ([3]; 60° C., day 180) was 99.75 ± 0.20%.
